Laboratory results reported in patent US20080280890A1, “HYDROXYLAMINE COMPOUNDS AND METHODS OF THEIR USE” (priority 2007, published 2008).
Where a name gives a salt, the structure may show the parent alone.

Key:
[1] = tested on: Human neuroblastoma SKN-SH cells, resistant to doxorubicin; assay: Chemoresistance: cancer cell viability (MTT) in presence or absence of doxorubicin; assay type: cell-based; settings: compound 50 ug/mL, MTT
Source text: A method for evaluating a compound's propensity to overcome cancer cell chemoresistance is described in “Caspase Inhibition Switches Doxorubicin-Induced Apoptosis To Senescence”, Abdelhadi Rebbaa, Xin Zheng, Pauline M Chou and Bernard L Mirkin, Oncogene (2003) 22, 2805-2811. Resistant human cancer cells to doxorubicin were selected by stepwise exposure to drug concentrations ranging from 10^−9 M-10^−6 M over 3 months. They were then subjected to treatment with the doxorubicin alone or in combination with hydroxylamine compounds 1-12, 16, 20, and 21 (Table 4). The cells were incubated with the drugs for 72 hours, and cell viability was measured by the MTT assay. Additionally, molecular pathways that might be associated with increased chemo-responsiveness with these compounds were investigated. p Cancer Cell Viability Data for certain hydroxylamines in the presence or absence of Doxorubicin is listed in Table 4.
A method for evaluating a compound's propensity to overcome cancer cell chemoresistance is described in “Caspase Inhibition Switches Doxorubicin-Induced Apoptosis To Senescence”, Abdelhadi Rebbaa, Xin Zheng, Pauline M Chou and Bernard L Mirkin, Oncogene (2003) 22, 2805-2811. Human neuroblastoma SKN-SH cells (ATCC Cat. No. HTB-11) were cultured in Dulbecco's Modified Eagles Medium (DMEM; Gibco, Grand Island, N.Y.) supplemented with 10% fetal bovine serum (FBS; Sigma-Aldrich, St. Louis, Mo.) at 37° C. in a 95% Air/5% CO2 atmosphere. Resistant human cancer cells to doxorubicin were selected by stepwise exposure to drug concentrations ranging from 10^−9M-10^−6M over 3 months. They were then subjected to treatment with the doxorubicin alone or in combination with hydroxylamine compounds. The cells were incubated with the drugs for 72 hours, and cell viability was measured by the MTT assay. This consists of adding 10 μl/well of MTT (5 mg/ml solution) and incubation for 4 h at 37° C. The precipitate formed is then solubilized by addition of 100 μl of HCL 0.5 N/Isopropanol and incubation for 15 hours at 37° C. The optical density is measured at 570 nm and cell survival is estimated by comparison to untreated cells. Each point represents 4 wells data represent average ± SE. Additionally, molecular pathways that might be associated with increased chemo-responsiveness with these compounds were investigated.
Cytotoxic activity of doxorubicin and hydroxylamine analogs were quantitatively determined by a colorimetric assay utilizing 3-(4,5-dimethyl-2-thiazolyl) 2,5-diphenyl tetrazolium bromide (MTT; Sigma-Aldrich, St. Louis, Mo.). Briefly, cells were seeded at 10^4 cells/well in 96-well plates and maintained in culture for 24 hours at 37° C. in DMEM supplemented with 10% FBS. Drugs were added to designated wells and cells were incubated for […], following which MTT (10 μL of 5 mg/ml solution) was added to each 100 μl well and incubated for 4 hours at 37° C. The cells were solubilized by incubation with 100 μl of HCl 0.5N in isopropanol for 15 hours at 37° C. The optical density of this solution was measured at 570 nm and the percentage of viable cells estimated by comparison with untreated control cells.

[2] = tested on: Angiogenesis in CAM model; assay: Neovascularization on the CAM (chick chorioallantoic membrane model of angiogenesis); assay type: in vivo, chicken; settings: 30 ug; unit assumed
Protocol: In vivo neovascularization was examined by the method previously described by Auerbach et al. (J. Dev. Biol. 41:391-394 (1974)). Ten-day old chicken embryos were purchased from Spafas, Inc. (Preston, Conn.) and were incubated at 37° C. with 55% relative humidity. In the dark, with the aid of a candling lamp, a small hole was punctured in the shell concealing the air sac with a hypodermic needle. A second hole was punctured in the shell on the broadside of the egg directly over an […] portion of the embryonic membrane, as observed during candling. An artificial air sac was created beneath the second hole by applying gentle vacuum to the first hole using a small rubber squeeze bulb. The vacuum caused the chorioallantoic membrane (CAM) to separate from the shell.
A window, approximately 1.0 cm^2, was cut in the shell over the dropped CAM with the use of a small crafts grinding wheel (Dremel, Division of Emerson Electric Company Racine, Wis.). The window allowed direct access to the underlying CAM.
A pro-angiogenic agent was added to induce new blood vessel branches on the CAM of 10-day old embryos. Filter disks of #1 filter paper (Whatman International, United Kingdom) were punched using a small puncher and were soaked in 3 mg/mL cortisone acetate (Sigma, St. Louis, Mo.) in a solution (95% ethanol and water). The disks were subsequently air dried under sterile conditions. The disks were then suspended in PBS (Phosphate Buffered Saline) and placed on growing CAMs. Filters treated with TP-H (TEMPOL-H) or TEMPOL and/or H2O2 or TP-H and/or bFGF or VEGF were placed on the first day of the 3-day incubation.
For inducing angiogenesis, sterile filter disks were saturated with bFGF (1 μg/ml) (Life Technologies, Gaithersburg, Md.) or other pro-angiogenesis factors and control disks were saturated with PBS without Calcium and Magnesium. […]
Using sterile forceps one filter/CAM was placed from the window. The window was sealed with Highland brand transparent tape.
After 24-48 hr, 10-25 ul of test agent was injected intravenously or added topically into the CAM membrane. Eight-Ten eggs/treatment group were used.
CAM tissue directly beneath filter disk was harvested from embryos treated 48 hours prior with compound or control. Tissues were washed three times with PBS. Sections were placed in a 35-mm petri dish (Nalge Nunc, Rochester, N.Y.) and examined under a SV6 stereomicroscope (Karl Zeiss, Thornwood, N.Y.) at 50× magnification.
CAM sections from Petri dish were examined using SV6 stereomicroscope (Karl Zeiss) at 50× magnification. Digital images of CAM sections from Petri dish were collected using a 3-CCD color video camera system (Toshiba America, New York, N.Y.). These images were analyzed using Image-Pro Plus software (Media Cybernetics, Silver Spring, Md.).
The number of branch points in blood vessels within the circular region superimposed to the area of a filter disk was counted for each section. After incubation at 37° C. with 55% relative humidity for 3 days, the CAM tissue directly beneath each filter disk was resected from control and treated CAM samples. Tissues were washed three times with PBS. Sections were placed in a 35-mm Petri dish (Nalge Nunc; Rochester, N.Y.) and were examined under a SV6 stereomicroscope (Karl Zeiss; Thornwood, N.Y.) at 50× magnification. Digital images of CAM sections adjacent to filters were collected using a 3-CCD color video camera system (Toshiba America; New York, N.Y.) and analyzed with the Image-Pro Plus software (Media Cybernetics; Silver Spring, Md.).
The number of vessel branch points contained in a circular region equal to the area of a filter disk was counted for each section. Percent inhibition data are expressed as the quotient of the experimental value minus the negative control value divided by the difference between the positive control value and the negative control value. […]

SMILES | melting point | Mean OD (×10^−3), cancer cell viability ([1]; Dox. 10^−6 M present (+)) | Mean OD (×10^−3), cancer cell viability ([1]; Dox. absent (−)) | Percent inhibition of angiogenesis in CAM model at 30 ug [2]
CC1(C)CC(Oc2nsnc2C(=O)O)CC(C)(C)N1O.Cl | 209.1 °C (dec.) |  |  | 
Cc1c(C)c2c(c(C)c1O)CCC(C)(C(=O)NC1CC(C)(C)N(O)C(C)(C)C1)O2.Cl (centres unmarked) | 174.9 °C (dec.) |  |  | 
CC(C)(C)OC(=O)c1nsnc1OC1CC(C)(C)N(O)C(C)(C)C1.Cl | 197 °C (dec.) |  |  | 
CC1(C)C=C(CO)C(C)(C)N1O (as salt: chloride) [Compound 8] | 141.9 °C (dec.) |  |  | 
CC1(C)CC(Oc2nsnc2C#N)CC(C)(C)N1O (as salt: hydrochloride) [Compound 45] | 179.2 °C (dec.) |  |  | 
CC1(C)CC(NC(=O)CCCCC2CCSS2)CC(C)(C)N1O (centres unmarked) (as salt: hydrochloride) [Compound 49, 5-(1,2-dithialan-3-yl)-N-(1-hydroxy-2,2,6,6-tetramethylpiperidin-4-yl)pentanamide] | 164.7 °C (dec.) |  |  | 
CC(C)c1nsnc1OCC1=CC(C)(C)N(O)C1(C)C (as salt: hydrochloride) [Compound 51] | 155.7 °C |  |  | 
CC1(C)CC(O)C(C)(C)N1O (centres unmarked) (as salt: salt) [Compound 7, 2,2,5,5-Tetramethyl-Pyrrolidine-1,3-diol] | 155.5 °C (dec.) |  |  | 
CC1(C)CC(NS(C)(=O)=O)CC(C)(C)N1O (as salt: salt) [Compound 10, 1-hydroxy-4-methanesulfonamido-2,2,6,6-tetramethylpiperidine] | 178.3 °C (dec.) |  |  | 
CC1(C)CC(O)C(Br)C(C)(C)N1O (centres unmarked) [Compound 9, 3-Bromo-2,2,6,6-tetramethyl-piperidine-1,4-diol] | 138.5 °C (dec.) | 234.75 ×10^−3 | 509.00 ×10^−3 | 82.2%
CC1(C)CC(C#N)CC(C)(C)N1O.Cl [Compound 12, 4-cyano-1-hydroxyl-2,2,6,6-tetramethylpiperidine] | 186 °C (dec.) | 287.25 ×10^−3 | 539.25 ×10^−3 | 
CC1(C)CC(Cl)CC(C)(C)N1O.Cl [Compound 21, 4-chloro-1-hydroxy-2,2,6,6-tetramethylpiperidine] | 201.8 °C (dec.) | 99.25 ×10^−3 | 492.75 ×10^−3 | 60.9%
CCCCC1(O)CC(C)(C)N(O)C(C)(C)C1.Cl [Compound 41, 1,4-dihydroxy-4-n-butyl-2,2,6,6-tetramethylpiperidine] | 187 °C (dec.) | 261.25 ×10^−3 | 824.75 ×10^−3 | 84.4%
CC1(C)CC(=CC(=O)N2CCN(c3ccccc3)CC2)CC(C)(C)N1O [Compound 56] |  | 308.75 ×10^−3 | 1153.00 ×10^−3 | 66.1%
CC1(C)C(CO)=C(c2ccc(F)cc2)C(C)(C)N1O.Cl [Compound 59, (4-(4-fluorophenyl)-1-hydroxy-2,5-dihydro-2,2,5,5-tetramethyl-1H-pyrrol-3-yl)methanol] |  | 352.00 ×10^−3 | 1105.00 ×10^−3 | 53%

Further lines, with some results ahead:

melting point | SMILES | Mean OD (×10^−3), cancer cell viability ([1]; Dox. 10^−6 M present (+)) | Mean OD (×10^−3), cancer cell viability ([1]; Dox. absent (−)) | Percent inhibition of angiogenesis in CAM model at 30 ug [2]
198.1 °C (dec.) | CC1(C)CC(Oc2nsnc2N2CCN(C(=O)c3ccco3)CC2)CC(C)(C)N1O.Cl |  |  | 
160 °C (dec.) | CC1(C)CC(Oc2nc3ccccc3s2)CC(C)(C)N1O.Cl |  |  | 
178 °C (dec.) | CC1(C)CC(Oc2nc3ccc(F)cc3s2)CC(C)(C)N1O.Cl |  |  | 
155.7 °C (dec.) | CC1(C)C=C(COc2ccccc2N2CCOCC2)C(C)(C)N1O.Cl |  |  | 
166.9 °C (dec.) | COc1cc2c(cc1OC)CN(c1nsnc1OC1CC(C)(C)N(O)C(C)(C)C1)CC2.Cl |  |  | 
183 °C (dec.) | CC1(C)CC(Nc2nc3ccccc3s2)CC(C)(C)N1O.Cl |  |  | 
220 °C (dec.) | COc1ccc2nc(NC3CC(C)(C)N(O)C(C)(C)C3)sc2c1.Cl |  |  | 
214.1 °C | CC1(C)c2ccc(Br)cc2C(C)(C)N1O.Cl |  |  | 
173.2 °C | Cc1nsnc1OCC1=CC(C)(C)N(O)C1(C)C (as salt: hydrochloride) [Compound 47, 3-((1-hydroxy-2,5-dihydro-2,2,5,5-tetramethyl-1H-pyrrol-3-yl)methoxy)-4-methyl-1,2,5-thiadiazole] |  |  | 
145 °C (dec.) | CC1(C)COC(=O)C(C)(C)N1O.Cl [Compound 39, N-Hydroxyl-3,3,5,5-tetramethylmorpholin-2-one] | 311.00 ×10^−3 | 1201.00 ×10^−3 | 96.9%
201.7 °C (dec.) | CC1(C)CC(O)(c2ccccc2)CC(C)(C)N1O.Cl [Compound 42, 1,4-Dihydroxy-4-phenyl-2,2,6,6-tetrmethylpiperidine] | 311.00 ×10^−3 | 1068.67 ×10^−3 | 61.9%
218 °C (dec.) | CC1(C)CC(Oc2nsnc2N2CCSCC2)CC(C)(C)N1O.Cl [Compound 55, 4-(4-(1-hydroxy-2,2,6,6-tetramethylpiperidin-4-yloxy)-1,2,5-thiadiazol-3-yl)thiomorpholine] | 285.75 ×10^−3 | 1037.25 ×10^−3 | 
